# Earlier results as cited in patent US12595109B2, “Device to release water and antimicrobial vapor into an enclosed or partially enclosed space” (Arkema Inc., priority 2020, dated 2026).
# Where two headings read alike, the source gives them in different places.
# Legend:
# [1] = system: Bacillus subtilis (Spores)
# [2] = system: Clostridium sporogenes (Spores)
# [3] = system: Geobacillus stearothermophilus; settings: biological indicator, 2 mg/L gaseous H2O2
# [4] = Liquid solution of H2O2, c(H2O2) = 370 mg l^−1, T = 24-25° C.
# [5] = VPHP, c(H2O2) = 1-2 mg l^−1, T = 24-25° C.
compound,measurement,setting,value
OO [hydrogen peroxide],D-value,[1]; [4],2.0 to 7.3 min
same,D-value,[1]; [5],0.5 to 1 min
same,maximum exposure,"ACGIH, 5 times the TLV-TWA",no more than 5 ppm
same,TLV,"ACGIH, 8 hour TWA",1 ppm
same,STEL,United Kingdom and some other countries,2 ppm
same,Short Term Exposures (STELs),Washington and Hawaii,3 ppm
same,D-value,[2]; [4],0.8 min
same,D-value,[2]; [5],0.5 to 1 min
same,D-value,[3],0.8 min
same,D-value,Bacillus (Spores); [4],1.5 min
same,D-value,Bacillus (Spores); [5],1 to 2 min
